System: Candida sp. strain
Assay: Tolerance of the strain Candida sp. to furfural (xylose fermentation with furfural added)
Assay type: cell-based
Description: The fermentation medium contained 97 g/L sterilized synthetic xylose solution with furfural in a concentration range of 1-3 g/L added. The fermentation temperature is controlled at 30° C., the agitation of the incubator is maintained at 150 rpm, and the ratio of the inocula size of the culture and the volume of the fermentation medium is 1:6 (v/v).

**Q.** Which results are given for `O=Cc1ccco1` [furfural]?
**A.** tolerance of the strain to furfural (97 g/L synthetic xylose solution, furfural 1-3 g/L added, 30° C., 150 rpm): higher than 3 g/L; xylitol yield (furfural 1-3 g/L in 97 g/L synthetic xylose solution): higher than 0.7 g/g; xylose fermentation capacity of the strain (furfural 3 g/L, 97 g/L synthetic xylose solution, compared with no furfural): the same as that without furfural
